Assay results as given in article PMC10746543, “Design principles for cyclin K molecular glue degraders” (Nature Chemical Biology, 2023).
Values joined by “and” are separate entries in the source; they are usually repeats but may differ in a detail not shown here. Identical values can stand only once. Like-named read-outs stand apart in the source and are kept apart here.

Experiments:
CDK12–cyclin K and DDB1 = molecular target: T1, CDK12–cyclin K and DDB1 (Homo sapiens, UniProt Q16531+Q9NYV4, K965R); assay: TR-FRET ternary complex formation assay (compound titration); format: binding
T1 construct: His6–CDK12 (a.a. 713–1,052); full-length or beta-propeller B domain deletion (ΔBPB: a.a. 396–705 deleted) constructs of His6–DDB1ΔBPB, StrepII–Avi–DDB1, or His6–Spy–DDB1; made in house; host or cells: Trichoplusia ni High Five insect cells (baculovirus)
T1 sequence (Q9NYV4 713-1052 K965R): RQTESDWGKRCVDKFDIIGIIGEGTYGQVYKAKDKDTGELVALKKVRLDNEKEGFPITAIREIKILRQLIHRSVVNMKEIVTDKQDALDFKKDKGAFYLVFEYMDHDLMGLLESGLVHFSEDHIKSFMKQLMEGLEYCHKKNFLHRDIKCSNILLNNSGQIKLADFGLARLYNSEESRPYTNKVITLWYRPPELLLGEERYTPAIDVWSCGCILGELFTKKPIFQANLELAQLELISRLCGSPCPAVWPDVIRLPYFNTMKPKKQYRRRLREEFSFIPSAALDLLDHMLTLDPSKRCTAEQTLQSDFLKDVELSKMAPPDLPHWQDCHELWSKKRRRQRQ
T1 sequence (O75909 1-267 partner): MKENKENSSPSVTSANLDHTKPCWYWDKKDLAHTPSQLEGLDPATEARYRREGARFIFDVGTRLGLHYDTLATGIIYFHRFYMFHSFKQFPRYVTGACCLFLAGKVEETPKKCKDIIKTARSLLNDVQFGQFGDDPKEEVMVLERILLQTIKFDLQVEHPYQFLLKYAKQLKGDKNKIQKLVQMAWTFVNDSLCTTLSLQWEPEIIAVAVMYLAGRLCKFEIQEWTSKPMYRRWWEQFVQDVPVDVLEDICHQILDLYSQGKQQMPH
T1 sequence (Q16531 whole entry): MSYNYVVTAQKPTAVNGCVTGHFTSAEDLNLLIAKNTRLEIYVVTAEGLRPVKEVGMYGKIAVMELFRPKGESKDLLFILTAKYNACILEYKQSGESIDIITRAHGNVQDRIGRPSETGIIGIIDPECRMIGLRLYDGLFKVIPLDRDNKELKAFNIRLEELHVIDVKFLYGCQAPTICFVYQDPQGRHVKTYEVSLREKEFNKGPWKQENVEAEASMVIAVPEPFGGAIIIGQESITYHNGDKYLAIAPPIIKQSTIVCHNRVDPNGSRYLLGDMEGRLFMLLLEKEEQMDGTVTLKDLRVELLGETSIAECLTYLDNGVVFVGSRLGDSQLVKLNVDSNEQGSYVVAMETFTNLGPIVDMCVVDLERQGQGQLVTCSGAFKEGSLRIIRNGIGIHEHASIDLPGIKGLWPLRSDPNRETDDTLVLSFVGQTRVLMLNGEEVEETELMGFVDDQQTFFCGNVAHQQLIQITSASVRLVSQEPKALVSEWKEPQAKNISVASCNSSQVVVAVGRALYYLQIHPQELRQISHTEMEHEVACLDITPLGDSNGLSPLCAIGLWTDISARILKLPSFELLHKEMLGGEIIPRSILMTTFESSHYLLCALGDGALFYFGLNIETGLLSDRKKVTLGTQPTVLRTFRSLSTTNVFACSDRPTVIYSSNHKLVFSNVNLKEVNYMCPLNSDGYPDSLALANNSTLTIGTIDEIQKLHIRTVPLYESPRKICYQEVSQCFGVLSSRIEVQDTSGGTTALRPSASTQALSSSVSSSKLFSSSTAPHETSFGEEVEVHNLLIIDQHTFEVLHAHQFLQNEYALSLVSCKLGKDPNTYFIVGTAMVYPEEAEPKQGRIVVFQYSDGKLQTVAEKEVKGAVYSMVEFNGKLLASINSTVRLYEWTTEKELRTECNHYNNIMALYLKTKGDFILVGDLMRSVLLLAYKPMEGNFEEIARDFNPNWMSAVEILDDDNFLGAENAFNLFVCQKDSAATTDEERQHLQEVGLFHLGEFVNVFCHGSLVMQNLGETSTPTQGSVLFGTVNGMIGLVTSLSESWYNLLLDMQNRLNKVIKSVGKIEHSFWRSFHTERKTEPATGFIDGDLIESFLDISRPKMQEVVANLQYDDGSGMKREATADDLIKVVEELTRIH
Method in brief: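 TR-FRET ratio 520/490 nm; 70 μs delay before read to suppress background.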

[1] = tested on: cyclin K–eGFP degradation reporter; assay: Cyclin K reporter stability analysis (dual-color cyclin K–eGFP reporter); format: cell-based, human; conditions: source data sheet correlations; read-out: DC50
Method in brief: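 Readout: flow-cytometric eGFP/mCherry ratio (geometric means, round mCherry+ gate) relative to the average of three DMSO wells. Reporter line was HEK293T–Cas9, treated 5 h with compound.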

HEK293T cells = assay: Drug sensitivity assay (CellTiter-Glo viability) with or without MLN4924 pretreatment; format: cell-based, human; conditions: for EC50: Homo sapiens, HEK-293T
Method in brief: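 Luminescent ATP read-out (CellTiter-Glo) after 3 days of drug exposure, normalised to DMSO controls. Cells were HEK293T–Cas9, pretreated with 100 nM MLN4924 or DMSO for 2 h before drug dispensing.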

CDK12–cyclin K = CDK12–cyclin K (Homo sapiens, UniProt Q9NYV4); assay: Lanthascreen kinase binding assay, CDK12; conditions: for Lanthascreen raw signal, sheet CDK12: series r1, duplicates
Sequence of CDK12–cyclin K (Q9NYV4 713-1052): as the sequence (Q9NYV4 713-1052 K965R) above, with R253K counted along it
Sequence of CDK12–cyclin K (O75909 1-267 partner limits assumed): as the sequence (O75909 1-267 partner) above
Procedure: (§1) Lanthascreen experiments were performed using commercially available reagents (Thermo Fisher) and according to the manufacturer’s instructions.

CDK9–cyclin T = molecular target: T2, CDK9–cyclin T (Homo sapiens, UniProt P50750); assay: Lanthascreen kinase binding assay, CDK9; conditions: for Lanthascreen TR-FRET signal (raw ratio), sheet CDK9: first titration set (r1), duplicates
T2 construct: purchased Thermo Fisher
T2 sequence (P50750 whole entry): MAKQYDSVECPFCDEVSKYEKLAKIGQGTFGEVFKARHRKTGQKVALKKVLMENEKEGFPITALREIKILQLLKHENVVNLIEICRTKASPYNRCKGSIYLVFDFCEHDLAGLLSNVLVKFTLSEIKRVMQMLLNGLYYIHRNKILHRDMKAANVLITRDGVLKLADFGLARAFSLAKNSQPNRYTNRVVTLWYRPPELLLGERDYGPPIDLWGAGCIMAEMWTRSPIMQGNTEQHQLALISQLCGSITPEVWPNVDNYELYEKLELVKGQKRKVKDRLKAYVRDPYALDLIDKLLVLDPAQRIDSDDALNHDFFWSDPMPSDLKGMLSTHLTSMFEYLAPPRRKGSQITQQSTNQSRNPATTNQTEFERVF
T2 sequence (O60563 whole entry partner): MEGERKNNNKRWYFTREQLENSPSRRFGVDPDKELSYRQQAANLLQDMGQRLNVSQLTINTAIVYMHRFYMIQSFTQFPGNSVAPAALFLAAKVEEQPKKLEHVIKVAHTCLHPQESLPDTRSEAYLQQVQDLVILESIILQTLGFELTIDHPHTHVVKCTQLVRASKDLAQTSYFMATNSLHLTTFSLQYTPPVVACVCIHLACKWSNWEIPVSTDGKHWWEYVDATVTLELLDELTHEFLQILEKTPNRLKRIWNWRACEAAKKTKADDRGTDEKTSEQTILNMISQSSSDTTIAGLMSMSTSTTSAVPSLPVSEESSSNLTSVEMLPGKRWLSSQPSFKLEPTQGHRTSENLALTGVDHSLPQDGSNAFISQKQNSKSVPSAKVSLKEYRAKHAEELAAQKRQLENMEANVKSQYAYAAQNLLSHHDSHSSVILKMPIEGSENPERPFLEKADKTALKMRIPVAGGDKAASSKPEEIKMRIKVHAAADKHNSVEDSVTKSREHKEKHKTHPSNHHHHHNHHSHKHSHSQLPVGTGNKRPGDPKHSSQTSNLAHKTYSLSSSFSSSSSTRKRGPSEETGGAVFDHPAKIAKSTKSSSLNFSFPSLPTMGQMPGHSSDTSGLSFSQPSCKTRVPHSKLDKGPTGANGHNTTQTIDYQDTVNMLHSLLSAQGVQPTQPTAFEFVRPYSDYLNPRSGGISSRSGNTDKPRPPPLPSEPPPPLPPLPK
Procedure: as §1

CDK2–cyclin A = molecular target: T3, CDK2–cyclin A (Homo sapiens, UniProt P24941); assay: Lanthascreen kinase binding assay, CDK2; conditions: for Lanthascreen signal, sheet CDK2: raw replicates, experiment r1-r11
T3 construct: purchased Thermo Fisher
Procedure: as §1

TR-FRET signal (CDK12–cyclin K and DDB1; compound concentration 3.6 nM): 0.4206 and 0.3705 | TR-FRET signal (CDK12–cyclin K and DDB1; compound concentration 4.68 nM): 0.1751 and 0.204 | TR-FRET signal (CDK12–cyclin K and DDB1; compound concentration 15.84 nM): 0.7002 and 0.5772 | TR-FRET signal (CDK12–cyclin K and DDB1; compound concentration 21.6 nM): 0.3896 and 0.4045 | TR-FRET signal (CDK12–cyclin K and DDB1; compound concentration 36 nM): 0.7669 and 0.7566 | TR-FRET signal (CDK12–cyclin K and DDB1; compound concentration 62.6401 nM): 1.529 and 1.274 | TR-FRET signal (CDK12–cyclin K and DDB1; compound concentration 79.2001 nM): 1.336 and 1.393 | TR-FRET signal (CDK12–cyclin K and DDB1; compound concentration 158.4 nM): 1.979 and 2.065 | TR-FRET signal (CDK12–cyclin K and DDB1; compound concentration 244.8 nM): 3.0134 and 2.769 | TR-FRET signal (CDK12–cyclin K and DDB1; compound concentration 309.6 nM): 2.635 and 2.78 | TR-FRET signal (CDK12–cyclin K and DDB1; compound concentration 626.401 nM): 3.319 and 3.352 | TR-FRET signal (CDK12–cyclin K and DDB1; compound concentration 993.601 nM): 3.805 and 3.416 | TR-FRET signal (CDK12–cyclin K and DDB1; compound concentration 1252.8 nM): 3.754 and 3.678 | TR-FRET signal (CDK12–cyclin K and DDB1; compound concentration 2001.6 nM): 4.058 and 3.866 | TR-FRET signal (CDK12–cyclin K and DDB1; compound concentration 2448 nM): 3.936 and 3.906 | TR-FRET signal (CDK12–cyclin K and DDB1; compound concentration 9936.01 nM): 4.2719 and 4.125 | TR-FRET signal (CDK12–cyclin K and DDB1; compound concentration 20016 nM): 4.262 and 4.289 | EC50 (CDK12–cyclin K and DDB1; in vitro complex formation, 50 nM CDK12–cyclin K, 100 nM DDB1, text and figures, read-out: TR-FRET EC50): 0.178 ± 0.014 µM | EC50 (CDK12–cyclin K and DDB1; sheet MOESM7, read-out: log TR-FRET EC50 (converted)): 0.178 µM | EC50 (CDK12–cyclin K and DDB1; source data sheet correlations, read-out: TR-FRET EC50): 0.178 µM | DC50 [1]: 0.436 µM | IC50 (CDK12–cyclin K; Supplementary Table 2, read-out: Lanthascreen IC50 [nM] CDK12): 3220 nM | Lanthascreen raw signal, sheet CDK12 (CDK12–cyclin K; compound 1.02544 nM): 0.009169 and 0.008974 | Lanthascreen raw signal, sheet CDK12 (CDK12–cyclin K; compound 3.15521 nM): 0.009884 and 0.009801 | Lanthascreen raw signal, sheet CDK12 (CDK12–cyclin K; compound 9.46563 nM): 0.008091 and 0.0101 | Lanthascreen raw signal, sheet CDK12 (CDK12–cyclin K; compound 31.5521 nM): 0.00922 and 0.009965 | Lanthascreen raw signal, sheet CDK12 (CDK12–cyclin K; compound 99.3891 nM): 0.01122 and 0.009922 | Lanthascreen raw signal, sheet CDK12 (CDK12–cyclin K; compound 315.521 nM): 0.009639 and 0.01064 | Lanthascreen raw signal, sheet CDK12 (CDK12–cyclin K; compound 3155.21 nM): 0.00898 and 0.008785 | Lanthascreen raw signal, sheet CDK12 (CDK12–cyclin K; compound 10002 nM): 0.007994 and 0.007932 | IC50 (CDK9–cyclin T; Lanthascreen, average, Extended Data Fig. 8, read-out: CDK9 IC50): > 10000 nM | IC50 (CDK9–cyclin T; Supplementary Table 2, read-out: Lanthascreen IC50 [nM] CDK9): > 10000 nM | Lanthascreen TR-FRET signal (raw ratio), sheet CDK9 (CDK9–cyclin T; compound 1.02544 nM): 0.0144 and 0.01353 | Lanthascreen TR-FRET signal (raw ratio), sheet CDK9 (CDK9–cyclin T; compound 3.15521 nM): 0.01322 and 0.01379 | Lanthascreen TR-FRET signal (raw ratio), sheet CDK9 (CDK9–cyclin T; compound 9.46563 nM): 0.01482 and 0.01443 | Lanthascreen TR-FRET signal (raw ratio), sheet CDK9 (CDK9–cyclin T; compound 31.5521 nM): 0.01456 and 0.01497 | Lanthascreen TR-FRET signal (raw ratio), sheet CDK9 (CDK9–cyclin T; compound 99.3891 nM): 0.0144 and 0.01356 | Lanthascreen TR-FRET signal (raw ratio), sheet CDK9 (CDK9–cyclin T; compound 315.521 nM): 0.01557 and 0.0126 | Lanthascreen TR-FRET signal (raw ratio), sheet CDK9 (CDK9–cyclin T; compound 3155.21 nM): 0.01348 and 0.01509 | Lanthascreen TR-FRET signal (raw ratio), sheet CDK9 (CDK9–cyclin T; compound 10002 nM): 0.008815 and 0.01082 | Lanthascreen signal, sheet CDK2 (CDK2–cyclin A; Compound 1.02544 nM): 0.007579 and 0.009377 | Lanthascreen signal, sheet CDK2 (CDK2–cyclin A; Compound 3.15521 nM): 0.00995 and 0.009356 | Lanthascreen signal, sheet CDK2 (CDK2–cyclin A; Compound 9.46563 nM): 0.01093 and 0.01062 | Lanthascreen signal, sheet CDK2 (CDK2–cyclin A; Compound 31.5521 nM): 0.01004 and 0.01088 | Lanthascreen signal, sheet CDK2 (CDK2–cyclin A; Compound 99.3891 nM): 0.009456 and 0.01029 | Lanthascreen signal, sheet CDK2 (CDK2–cyclin A; Compound 315.521 nM): 0.0104 and 0.01024 | Lanthascreen signal, sheet CDK2 (CDK2–cyclin A; Compound 3155.21 nM): 0.01031 and 0.01162 | Lanthascreen signal, sheet CDK2 (CDK2–cyclin A; Compound 10002 nM): 0.01102 and 0.01013 | IC50 (CDK2–cyclin A; Lanthascreen, average, Extended Data Fig. 8, read-out: CDK2 IC50): > 10000 nM | IC50 (CDK2–cyclin A; Supplementary Table 2, read-out: Lanthascreen IC50 [nM] CDK2): > 10000 nM
SMILES: COc1ccc(C)cc1N1C[C@@H](C(=O)Nc2nc3ccccc3[nH]2)CC1=O [Z11]
EC50 (HEK293T cells; Supplementary Fig. 5, HEK293T, CellTiter Glo, 72h, pre-treatment with 100 nM MLN4924, read-out: Viability EC50, with MLN4924): 1290 µM | EC50 (HEK293T cells; Supplementary Table 2, HEK293T viability, 72 h, compound alone, read-out: Cellular assays EC50): 1.07 µM | Toxicity rescue (HEK293T cells; Supplementary Table 2, MLN4924-mediated cytotoxicity rescue, 10 µM used where n.d.): 838%
